Experimental data reported in PubChem BioAssay (NCI).
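These data come from cells grown in 96-well plates and exposed to compound for 48 hours at five concentrations. At the GI50, growth is halved. TGI is the concentration that stops growth completely.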

Experiments:
Assay in all cases: NCI tumour cell line growth inhibition, 48 h
CAKI-1 renal = tested on: CAKI-1 renal
SF-539 CNS = tested on: SF-539 CNS
OVCAR-5 ovarian = tested on: OVCAR-5 ovarian
NCI-H522 lung = tested on: NCI-H522 lung
A549 NSCLC = tested on: A549 NSCLC
BT-549 breast = tested on: BT-549 breast
UACC-257 melanoma = tested on: UACC-257 melanoma
SNB-75 CNS = tested on: SNB-75 CNS
DU-145 prostate = tested on: DU-145 prostate
RPMI-8226 leukemia = tested on: RPMI-8226 leukemia
A498 renal = tested on: A498 renal
UO-31 renal = tested on: UO-31 renal
HOP-62 NSCLC = tested on: HOP-62 NSCLC
SF-268 CNS = tested on: SF-268 CNS
U251 CNS = tested on: U251 CNS
SK-MEL-2 melanoma = tested on: SK-MEL-2 melanoma
UACC-62 melanoma = tested on: UACC-62 melanoma
NCI-H226 lung = tested on: NCI-H226 lung
HCT-15 colon = tested on: HCT-15 colon
MCF7 breast = tested on: MCF7 breast
SR leukemia = tested on: SR leukemia
LOX IMVI melanoma = tested on: LOX IMVI melanoma
OVCAR-4 ovarian = tested on: OVCAR-4 ovarian
COLO 205 colon = tested on: COLO 205 colon
HCC-2998 colon = tested on: HCC-2998 colon
ACHN renal = tested on: ACHN renal
HT29 colon = tested on: HT29 colon
SK-MEL-5 melanoma = tested on: SK-MEL-5 melanoma
TK-10 renal = tested on: TK-10 renal
SK-OV-3 ovarian = tested on: SK-OV-3 ovarian
OVCAR-8 ovarian = tested on: OVCAR-8 ovarian
HOP-92 NSCLC = tested on: HOP-92 NSCLC
SW-620 colon = tested on: SW-620 colon
SF-295 CNS = tested on: SF-295 CNS
MDA-MB-231 breast = tested on: MDA-MB-231 breast
OVCAR-3 ovarian = tested on: OVCAR-3 ovarian
KM12 colon = tested on: KM12 colon
HCT-116 colon = tested on: HCT-116 colon
M14 melanoma = tested on: M14 melanoma
SK-MEL-28 melanoma = tested on: SK-MEL-28 melanoma
MDA-MB-468 breast = tested on: MDA-MB-468 breast
CCRF-CEM leukemia = tested on: CCRF-CEM leukemia
RXF 393 renal = tested on: RXF 393 renal
MOLT-4 leukemia = tested on: MOLT-4 leukemia
MDA-MB-435 = tested on: MDA-MB-435
HL-60(TB) leukemia = tested on: HL-60(TB) leukemia
SN12C renal = tested on: SN12C renal
NCI-H23 lung = tested on: NCI-H23 lung
EKVX NSCLC = tested on: EKVX NSCLC
NCI-H460 lung = tested on: NCI-H460 lung
PC-3 prostate = tested on: PC-3 prostate
SNB-19 CNS = tested on: SNB-19 CNS
T-47D breast = tested on: T-47D breast
K-562 leukemia = tested on: K-562 leukemia
HS 578T breast = tested on: HS 578T breast
IGROV1 ovarian = tested on: IGROV1 ovarian
MALME-3M melanoma = tested on: MALME-3M melanoma
786-0 renal = tested on: 786-0 renal

What does the source list for `CC(=O)Oc1ccccc1C(=O)NC([Se])=NC1CCCCC1`?
GI50 (CAKI-1 renal): 3.07 µM; TGI (CAKI-1 renal): 11.5 µM; GI50 (SF-539 CNS): 1.84 µM; TGI (SF-539 CNS): 3.46 µM; GI50 (OVCAR-5 ovarian): 2.07 µM; TGI (OVCAR-5 ovarian): 5.15 µM; GI50 (NCI-H522 lung): 15.6 µM; TGI (NCI-H522 lung): 30 µM; GI50 (A549 NSCLC): 3.3 µM; TGI (A549 NSCLC): 23 µM; GI50 (BT-549 breast): 3.3 µM; TGI (BT-549 breast): 11.3 µM; GI50 (UACC-257 melanoma): 2.93 µM; TGI (UACC-257 melanoma): 10.2 µM; GI50 (SNB-75 CNS): 1.71 µM; TGI (SNB-75 CNS): 5.87 µM; GI50 (DU-145 prostate): 3.22 µM; TGI (DU-145 prostate): 10.2 µM; GI50 (RPMI-8226 leukemia): 2.63 µM; TGI (RPMI-8226 leukemia): 7.61 µM; GI50 (A498 renal): 2.41 µM; TGI (A498 renal): 7.58 µM; GI50 (UO-31 renal): 1.62 µM; TGI (UO-31 renal): 3.03 µM; GI50 (HOP-62 NSCLC): 3.35 µM; TGI (HOP-62 NSCLC): 13.4 µM; GI50 (SF-268 CNS): 13.7 µM; TGI (SF-268 CNS): 31.2 µM; GI50 (U251 CNS): 2.35 µM; TGI (U251 CNS): 6.24 µM; GI50 (SK-MEL-2 melanoma): 2.35 µM; TGI (SK-MEL-2 melanoma): 5.29 µM; GI50 (UACC-62 melanoma): 1.79 µM; TGI (UACC-62 melanoma): 3.89 µM; GI50 (NCI-H226 lung): 2.56 µM; TGI (NCI-H226 lung): 9.46 µM; GI50 (HCT-15 colon): 3.43 µM; TGI (HCT-15 colon): 11.6 µM; GI50 (MCF7 breast): 2.24 µM; TGI (MCF7 breast): 6.8 µM; GI50 (SR leukemia): 3.11 µM; TGI (SR leukemia): 14.4 µM; GI50 (LOX IMVI melanoma): 1.96 µM; TGI (LOX IMVI melanoma): 4.26 µM; GI50 (OVCAR-4 ovarian): 4.35 µM; TGI (OVCAR-4 ovarian): 16.9 µM; GI50 (COLO 205 colon): 17.1 µM; TGI (COLO 205 colon): 31.4 µM; GI50 (HCC-2998 colon): 2.28 µM; TGI (HCC-2998 colon): 5.11 µM; GI50 (ACHN renal): 9.75 µM; TGI (ACHN renal): 25.8 µM; GI50 (HT29 colon): 4.87 µM; TGI (HT29 colon): 28.7 µM; GI50 (SK-MEL-5 melanoma): 1.63 µM; TGI (SK-MEL-5 melanoma): 3.07 µM; GI50 (TK-10 renal): 12.1 µM; TGI (TK-10 renal): 24.7 µM; GI50 (SK-OV-3 ovarian): 2.84 µM; TGI (SK-OV-3 ovarian): 7.5 µM; GI50 (OVCAR-8 ovarian): 1.95 µM; TGI (OVCAR-8 ovarian): 3.73 µM; GI50 (HOP-92 NSCLC): 2.34 µM; TGI (HOP-92 NSCLC): 6.52 µM; GI50 (SW-620 colon): 10.2 µM; TGI (SW-620 colon): 23.6 µM; GI50 (SF-295 CNS): 2.24 µM; TGI (SF-295 CNS): 5.08 µM; GI50 (MDA-MB-231 breast): 1.96 µM; TGI (MDA-MB-231 breast): 3.77 µM; GI50 (OVCAR-3 ovarian): 12.4 µM; TGI (OVCAR-3 ovarian): 25.9 µM; GI50 (KM12 colon): 3.42 µM; TGI (KM12 colon): 11.7 µM; GI50 (HCT-116 colon): 3.18 µM; TGI (HCT-116 colon): 12.6 µM; GI50 (M14 melanoma): 2.43 µM; TGI (M14 melanoma): 5.7 µM; GI50 (SK-MEL-28 melanoma): 3.59 µM; TGI (SK-MEL-28 melanoma): 13.1 µM; GI50 (MDA-MB-468 breast): 7.37 µM; TGI (MDA-MB-468 breast): 20.7 µM; GI50 (CCRF-CEM leukemia): 5.25 µM; TGI (CCRF-CEM leukemia): 29.4 µM; GI50 (RXF 393 renal): 1.65 µM; TGI (RXF 393 renal): 3.34 µM; GI50 (MOLT-4 leukemia): 10.8 µM; TGI (MOLT-4 leukemia): 98.8 µM; GI50 (MDA-MB-435): 7.88 µM; TGI (MDA-MB-435): 20.9 µM; GI50 (HL-60(TB) leukemia): 18.2 µM; TGI (HL-60(TB) leukemia): > 100 µM; GI50 (SN12C renal): 1.99 µM; TGI (SN12C renal): 4.41 µM; GI50 (NCI-H23 lung): 2.24 µM; TGI (NCI-H23 lung): 5.35 µM; GI50 (EKVX NSCLC): 2.12 µM; TGI (EKVX NSCLC): 4.93 µM; GI50 (NCI-H460 lung): 2.62 µM; TGI (NCI-H460 lung): 7.24 µM; GI50 (PC-3 prostate): 2.63 µM; TGI (PC-3 prostate): 8.24 µM; GI50 (SNB-19 CNS): 3.28 µM; TGI (SNB-19 CNS): 11.7 µM; GI50 (T-47D breast): 12.5 µM; TGI (T-47D breast): 30.2 µM; GI50 (K-562 leukemia): 26.1 µM; TGI (K-562 leukemia): > 100 µM; GI50 (HS 578T breast): 2.67 µM; TGI (HS 578T breast): 9.16 µM; GI50 (IGROV1 ovarian): 2.02 µM; TGI (IGROV1 ovarian): 3.98 µM; GI50 (MALME-3M melanoma): 16.7 µM; TGI (MALME-3M melanoma): 30.3 µM; GI50 (786-0 renal): 1.72 µM; TGI (786-0 renal): 3.28 µM
